Read-outs that look alike come from different tables or passages of the source.
Experiments:
PPP1R15B-PP1 = biological target: T1, PPP1R15B-PP1 (Homo sapiens, UniProt Q5SWA1); assay: SPR steady-state binding to R15B-PP1 holophosphatase
T1 construct: cDNAs encoding amino acids 325-636 of PPP1R15A and 340-698 of PPP1R15B were His-tagged and cloned into pMAL-c5x; made in house; host or cells: R15B: E. coli BL21-Gold (pMAL-c5x); PP1γ: Sf9 insect cells (baculovirus, pDW464)
Description: PPP1R15A^325-636 and PPP1R15B^340-698 were expressed and purified as follows: the cDNAs encoding amino acids 325-636 of PPP1R15A and 340-698 of PPP1R15B were His-tagged and cloned into pMAL-c5x. Recombinant PPP1R15A/B were expressed in BL21-Gold cells and purified by affinity chromatography on a HisTrap HP column (GE Healthcare), followed by a MBPTrap HP column (GE Healthcare). The proteins were analyzed on BOLT SDS-PAGE 4-12% Bis-Tris gels (Life Technologies) stained with SimplyBlue SafeStain (Life Technologies). cDNA encoding for human PP1γ was cloned into the baculovirus transfer vector pDW464 to add a biotin acceptor peptide (BAP). The vector also encodes for the E. coli biotin holoenzyme synthetase (BirA), so that BAP-tagged proteins can be biotinylated in vivo in Spodoptere frugiperda (Sf9) insect cells (Duffy et al., Anal. Biochem., 262, 122-128, 1998). The Bac-to-Bac baculovirus expression system (Life Technologies) was used to generate the recombinant bacmid DNA and Sf9 insect cells were used to amplify the viral stocks Cultures were harvested by centrifuging at 1,200 g for 15 minutes, cell pellets were resuspended in lysis buffer (50 mM Tris pH 7.4, 150 mM NaCl, 0.2% Triton, 5% Glycerol, 1 PiC tablet (Roche) per 50 ml and 0.2 mM PMSF) and followed by gentle sonication. The protein was first purified on a 5 ml HiTrap Q HP column (GE Healthcare) followed by a HiLoad 16/600 Superdex 200 column (GE Healthcare). The positive fractions confirmed by SDS-PAGE and western blot were pooled, concentrate to ˜1 μM and stored at −80° C.
A Biacore T200 (GE Healthcare) system was used for all experiments and biotinylated PP1 was captured using a Sensor Chip SA (GE Healthcare, catalog no BR-1005-31). The streptavidin coated surface was activated by 1 min injection with a solution of 50 mM NaOH and 1 M NaCl. Biotin-PP1 was diluted in the running buffer (50 mM Tris pH 7.5, 100 mM NaCl, 0.1 mM EGTA, 1 mM MnCl2, 0.05% Tween 20) and injected at approximately 300 nM concentration directly to streptavidin coated surface for 100 sec or to reach immobilization level of biotin-PP1 corresponding to ˜7000 RU. A blank immobilization was performed for one of the SA sensor chip surface to use as a reference.
With minor deviations, the same procedure and conditions were used in all binding experiments. Small molecules were stored as 50 mM stock solutions in 100% DMSO. Prior to determining binding constants, serial dilutions of either 12 or 8 concentrations of the compounds were prepared in the running buffer in a 96-well plate. Prior to each compound dilution series the regulatory subunit, R15A or R15B, was diluted to […] in the running buffer and captured on the biotin-PP1 surface, to form the holophosphatase complex on the sensor chip surface. Then, without regenerating the surface, the compound dilution series was injected onto the surface of the chip Sensorgrams were analyzed using the Biacore T200 evaluation software and the binding constants determined based on a steady-state model. Kinetic experiments are carried out using different concentrations of the compound and their respective equilibrium binding levels determined.
Surface Plasmon Resonance (SPR) was used to measure the binding affinity of compounds to the PPP1R15A/B-PP1 phosphatase complex. Biotin acceptor peptide (BAP) was fused to the N-terminus of PP1γ, which enables the biotinylation of the BAP-tagged protein in Sf9 insect cells. After purification the BAP-PP1γ protein was captured on a streptavidin sensor chip (SA-chip, GE healthcare) to a response level of ˜5.000 RU. Using controlled biotinylation enables orientated and uniform immobilization on the sensor chip surface. The PP1γ was then used to capture PPP1R15A/B and form a holophosphatase complex on the surface of the streptavidin chip. This complex can then be used to test binding of compounds. 10 μM PPP1R15A/B protein concentration was used to form the holophosphatase complex during a 80 s injection. […]

protein synthesis = assay: Assessment of translation rates (35S-methionine labelling); assay type: cell-based; conditions: for Effect on translation ⇒ Inhibits: target(s) concluded to be inhibited; for Effect on translation: 35S-methionine labelling of cells
Description: Cells (90,000 cells/ml) were plated in 12-well plates, treated as indicated, labelled with 100 μCi/mI 35S-methionine (Hartmann Analytic) for 10 minutes at 37° C., washed with ice-cold PBS and lysed in 120 μl Laemmli Buffer. Lysates were boiled at 95° C. for 5 minutes, sonicated and resolved on 4-12% Bolt Bis-Tris Plus Gels (Thermo Fisher Scientific). Gels were then stained with InstantBlue (Expedeon) and analyzed by phosphorimaging and quantified using ImageJ.
By monitoring translation rates as described above, the activities of R15A, R15B and R15A/B inhibitors can be defined as follows (also shown in FIG. 12). An R15A inhibitor has no effect on translation in unstressed cells but prolongs translation attenuation following stress. A selective R15B inhibitor transiently attenuate protein synthesis because R15A compensates for the inhibition of R15B.

R15A or R15B = assay: Selective binding towards R15A or R15B (based on SPR); set-up: species or system human
Description: In one embodiment, the compounds of formula IB inhibit PPP1R15A and PPP1R15B. Inhibition of PPP1R15A and PPP1R15B can be determined from binding analysis. For example, binding can be analysed using SPR (surface plasmon resonance) to obtain KD values. A PPP1R15A and PPP1R15B inhibitor may be defined as a compound where the difference in KD values between R15A and R15B is no more than about 3 fold.
Small molecules were stored as 50 mM stock solutions in 100% DMSO. Prior to determining binding constants, serial dilutions of either 12 or 8 concentrations of the compounds were prepared in the running buffer in a 96-well plate. Prior to each compound dilution series the regulatory subunit, MBP-R15A^325-636-His or MBP-R15B^340-698-His, was diluted to 10 μM in the running buffer and captured on the bio-PP1c surface at a flow rate of 30 μl/min for 1 minute to form the holophosphatase complex on the sensor chip surface. This was followed by 1 minute stabilization period, to wash off any unspecific binding. Then, without regenerating the surface, the compound dilution series was injected onto the surface of the chip at a flow rate of 30 μl/min for 1 minute, followed by 2 minutes dissociation time. After each dilution series the surface was regenerated using 3 M NaCl for 90 seconds. After regeneration, SPR responses generally returned to base levels and the bio-PP1c surface was ready for the next compound dilution series. In order to be able to correct for small variations in DMSO concentration between samples, eight solvent samples ranging from 0.06 to 8% DMSO were injected every 50th cycle. The flow cell temperature was 10° C.
Sensorgrams were analyzed using the Biacore T200 evaluation software and the binding constants determined based on a steady-state model. Kinetic experiments are carried out using different concentrations of the compound and their respective equilibrium binding levels determined.

[1] = SPR steady-state, MBP-R15B340-698-His captured on bio-PP1c, 10° C., read-out: R15B (KD)

T1 sequence (Q5SWA1 340-698): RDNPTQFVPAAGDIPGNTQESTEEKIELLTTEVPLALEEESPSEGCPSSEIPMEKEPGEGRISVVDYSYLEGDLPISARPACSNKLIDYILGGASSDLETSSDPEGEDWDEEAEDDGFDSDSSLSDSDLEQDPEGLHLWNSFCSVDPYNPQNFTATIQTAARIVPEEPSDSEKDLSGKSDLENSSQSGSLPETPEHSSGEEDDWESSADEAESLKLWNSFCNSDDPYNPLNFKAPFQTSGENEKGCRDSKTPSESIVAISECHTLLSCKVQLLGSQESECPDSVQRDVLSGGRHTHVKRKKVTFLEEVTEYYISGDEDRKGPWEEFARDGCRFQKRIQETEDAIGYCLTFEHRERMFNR
T1 sequence (P36873 whole entry partner, the tested form may be a part): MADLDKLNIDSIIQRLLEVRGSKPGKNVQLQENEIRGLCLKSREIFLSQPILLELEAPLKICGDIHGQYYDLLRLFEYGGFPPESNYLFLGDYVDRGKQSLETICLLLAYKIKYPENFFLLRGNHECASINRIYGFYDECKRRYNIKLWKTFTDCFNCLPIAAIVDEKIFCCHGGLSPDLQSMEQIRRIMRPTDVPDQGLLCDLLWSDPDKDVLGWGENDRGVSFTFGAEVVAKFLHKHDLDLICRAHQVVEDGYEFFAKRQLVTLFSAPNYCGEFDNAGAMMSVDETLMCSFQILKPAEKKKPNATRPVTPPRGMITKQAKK

SMILES	Kd (PPP1R15B-PP1; [1]) [µM]	Effect on translation ⇒ Inhibits (protein synthesis)	Selective binding towards R15A or R15B (based on SPR) (R15A or R15B)	Effect on translation (protein synthesis)	Kd (PPP1R15B-PP1; SPR, FIG. 1, read-out: KD for PPP1R15B-PP1) [µM]	protein synthesis rates (protein synthesis; unstressed cells, 10 μM, FIG. 12)
[H]/N=C(\N)NN=Cc1ccc(Cl)c(Cl)c1 [Compound 11, (E)-2-(3,4-dichlorobenzylidene)hydrazine-1-carboximidamide]	13.4 ± 0.47	R15AB	R15AB (A PPP1R15A and PPP1R15B inhibitor may be defined as a compound where the difference in KD values between R15A and R15B is no more than about 3 fold)			
[H]/N=C(\N)NN=Cc1ccc(Cl)c(F)c1Cl [Compound 13, (E)-2-(2,4-dichloro-3-fluorobenzylidene)hydrazine-1-carboximidamide]	6.68 ± 2.34	R15AB	R15AB (A PPP1R15A and PPP1R15B inhibitor may be defined as a compound where the difference in KD values between R15A and R15B is no more than about 3 fold)	Persistent		
[H]/N=C(\N)NN=Cc1ccc(F)c(Cl)c1Cl [Compound 14, (E)-2-(2,3-dichloro-4-fluorobenzylidene)hydrazine-1-carboximidamide]	5.43 ± 1.26		R15AB (A PPP1R15A and PPP1R15B inhibitor may be defined as a compound where the difference in KD values between R15A and R15B is no more than about 3 fold)	Persistent		
[H]/N=C(\N)NN=Cc1cccc(Cl)c1Cl [Compound 16, (E)-2-(2,3-dichlorobenzylidene)hydrazine-1-carboximidamide]			R15B (A “selective inhibitor” may be defined as a compound where the difference in KD values between R15A and R15B is greater than 3 fold)	Transient	0.035	transiently inhibits protein synthesis in unstressed cells
[H]/N=C(\N)NN=Cc1ccccc1F [Compound 17, (E)-2-(2-fluorobenzylidene)hydrazine-1-carboximidamide]	18.1 ± 1.8		R15AB (A PPP1R15A and PPP1R15B inhibitor may be defined as a compound where the difference in KD values between R15A and R15B is no more than about 3 fold)	(No)		
[H]/N=C(\N)NN=Cc1cc(F)ccc1Cl [Compound 20, (E)-2-(2-chloro-5-fluorobenzylidene)hydrazine-1-carboximidamide]	5.17 ± 0.69	R15AB	R15AB (A PPP1R15A and PPP1R15B inhibitor may be defined as a compound where the difference in KD values between R15A and R15B is no more than about 3 fold)			
[H]/N=C(\N)NN=Cc1cccnc1Cl [Compound 21, (E)-2-((2-chloropyridin-3-yl)methylene)hydrazine-1-carboximidamide]	0.537		R15AB (A PPP1R15A and PPP1R15B inhibitor may be defined as a compound where the difference in KD values between R15A and R15B is no more than about 3 fold)	Transient		
[H]/N=C(\N)NN=Cc1ccc(Cl)nc1Cl [Compound 22, (E)-2-((2,6-dichloropyridin-3-yl)methylene)hydrazine-1-carboximidamide]	12.3	R15AB	R15AB (A PPP1R15A and PPP1R15B inhibitor may be defined as a compound where the difference in KD values between R15A and R15B is no more than about 3 fold)			
[H]/N=C(\N)NN=Cc1cccc(F)c1 [Compound 23, (E)-2-(3-fluorobenzylidene)hydrazine-1-carboximidamide]	1.05 ± 0.32	R15AB	R15AB (A PPP1R15A and PPP1R15B inhibitor may be defined as a compound where the difference in KD values between R15A and R15B is no more than about 3 fold)			
[H]/N=C(\N)NN=Cc1cccc(Cl)c1 [Compound 24, (E)-2-(3-chlorobenzylidene)hydrazine-1-carboximidamide]	18.7	R15AB	R15AB (A PPP1R15A and PPP1R15B inhibitor may be defined as a compound where the difference in KD values between R15A and R15B is no more than about 3 fold)			
[H]/N=C(\N)NN=Cc1cc(Cl)ccc1Cl [Compound 26, (E)-2-(2,5-dichlorobenzylidene)hydrazine-1-carboximidamide]	30 ± 2.3	R15AB	R15AB (A PPP1R15A and PPP1R15B inhibitor may be defined as a compound where the difference in KD values between R15A and R15B is no more than about 3 fold)			
[H]/N=C(\N)NN=Cc1cc(F)cc(F)c1Cl [Compound 29, (E)-2-(2-chloro-3,5-difluorobenzylidene)hydrazine-1-carboximidamide]	4.06	R15AB	R15AB (A PPP1R15A and PPP1R15B inhibitor may be defined as a compound where the difference in KD values between R15A and R15B is no more than about 3 fold)			
[H]/N=C(\N)NN=Cc1cccc(Cl)c1F [Compound 30, (E)-2-(3-chloro-2-fluorobenzylidene)hydrazine-1-carboximidamide]	12.3 ± 0.6		R15AB (A PPP1R15A and PPP1R15B inhibitor may be defined as a compound where the difference in KD values between R15A and R15B is no more than about 3 fold)	No		
